Assay results published in patent US20260061056A1, “RINSE SOLUTION FOR A PHOTODYNAMIC DISINFECTION” (MANA HEALTH TECHNOLOGIES GMBH, priority 2022, published 2026).

How the values were obtained:
Streptococcus mutans = assay: photodynamic effect of rinsing solution against S. mutans bacterial suspension, photosensitiser concentration series (FIG. 2); assay type: cell-based; conditions: irradiation 300 s; for microorganism content after irradiation: 17-21 J/cm^2
Description: The corresponding comparative value was approx. 3.2·10^7 CFU/ml. The other bars of the graph each show the reduction in the microorganism content when using the (here: single) photosensitiser at different concentrations, including such concentrations that differ from the disclosed subject matter, in the rinsing solution after effective irradiation for 300 s with between 10 and 45 J/cm^2, in the present case between 17 and 21 J/cm^2.
As the other bars R50, R125 and R250 show, the microorganism content increases again with increasing photosensitiser concentration of 0.5 wt. % (R50), 1.25 wt. % (R125) and 2.5 wt. % (R250), i.e. to approx. 1.6·10^5 CFU/ml, approx. 1.1·10^6 CFU/ml and approx. 2.9·10^6 CFU/ml, respectively. This means that despite the higher concentration of the photosensitiser and the higher number of free radicals to be expected as a result, the efficacy of the disinfection is reduced.

[1] = absorption spectrum of the photosensitiser (FIG. 1); assay type: physicochemical; conditions: absorption spectrum A of the photosensitiser in rinsing solution
Description: The absorption spectrum A of the photosensitiser used here (dotted line in FIG. 1) has a maximum at a wavelength A of around 445 nm. To activate the photosensitiser, irradiation in the range of this wavelength—or optionally, as in the present example, with a broadband radiation source that also encompasses this range—is therefore effective. […] If more than one photosensitiser is used, this generally results in several absorption maxima to which the radiation source or its radiation spectrum must be adapted.

In the case of Cc1cc2nc3c(=O)[nH]c(=O)nc-3n(C[C@H](O)[C@H](O)[C@H](O)COP(=O)([O-])O)c2cc1C.[Na+] [riboflavin 5′-phosphate sodium, Riboflavin 5′-phosphate sodium], the “microorganism content after irradiation” value (Streptococcus mutans; 0.01 wt. % photosensitiser in rinsing solution (bar R01), growth control approx. 3.2·10^7 CFU/ml) was “approx. 2.1·10^6 CFU/ml”, the “reduction of microorganism content versus growth control” value (Streptococcus mutans; 0.01 wt. % photosensitiser) was “more than an order of magnitude” and the “microorganism content after irradiation” value (Streptococcus mutans; 0.25 wt. % photosensitiser in rinsing solution (bar R25)) was “approx. 2.0·10^4 CFU/ml”. For the same compound, the “microorganism content as fraction of the comparative value” (Streptococcus mutans; 0.25 wt. % photosensitiser) was “less than 1/1000”, the “reduction of microorganism content versus growth control” value (Streptococcus mutans; 0.25 wt. % photosensitiser) was “more than 3 orders of magnitude” and the “microorganism content after irradiation” value (Streptococcus mutans; 0.5 wt. % photosensitiser (bar R50)) was “approx. 1.6·10^5 CFU/ml”. For the same compound, the “microorganism content after irradiation” value (Streptococcus mutans; 1.25 wt. % photosensitiser (bar R125)) was “approx. 1.1·10^6 CFU/ml”, the “microorganism content after irradiation” value (Streptococcus mutans; 2.5 wt. % photosensitiser (bar R250)) was “approx. 2.9·10^6 CFU/ml” and the absorption maximum wavelength [1] was “around 445 nm”.
